Data taken from PMC6099617, “Synthesis of Antibacterial Nisin–Peptoid Hybrids Using Click Methodology” (Molecules : A Journal of Synthetic Chemistry and Natural …, 2018).
Values after ≈ are worked out from the molar mass of the structure shown. Where two headings read alike, the source gives them in different places. Square brackets hold non-standard residues; d marks the D form. Peptide text beside a SMILES is read from it. N(4-F-Bzl)Gly = O=C(O)CNCc1ccc(F)cc1; Gly(N-2-aminoethyl) = NCCNCC(=O)O; Nspe = C[C@H](NCC(=O)O)c1ccccc1; Nlys = NCCCCNCC(=O)O

How the values were obtained:
[1] = system: methicillin-resistant Staphylococcus aureus USA 300
HaCaT keratinocytes = assay: Cytotoxicity assay (alamarBlue cell viability), HaCaT; assay type: cell-based; conditions: 1 hour with compound 2–100 µM, then 24 hours
Protocol: (§1) Cytotoxicity analyses were performed in 96-well plates (Costar, Fisher Scientific) using alamarBlue® (Invitrogen) for cell viability detection using a modified protocol as previously described.9 The HepG2 or HaCaT cells were grown at 37 °C, 5 % CO2 in DMEM10 high glucose supplemented with heat-inactivated foetal bovine sera (FBS, 10 %; Biosera Ltd) and penicillin/streptomycin (P/S, 1 %). Cells were counted using a Neubauer Improved Haemocytometer. Cells were seeded 1 day prior to treatment in 96 well plates at a concentration of 2 x 10^5 cells mL-1 in 100 µL of medium (2 x 10^4 cells/well). Empty wells were filled with 100 µL PBS. After 24 hours, cells were incubated with the compounds in a dilution series in triplicate from 2–100 µM (5 mM stock solutions in DMSO; untreated cells with DMSO as a negative control) in 50 µL of the media for 1 hour. Afterwards, 40 µL of medium was removed from each well before the addition of 90 µL of the media, followed by incubation for 24 hours at 37 °C, 5 % CO2. Then, 10 µL of alamarBlue® (Invitrogen) was added to each well before a 2 hour incubation prior to assessing cell viability using a fluorescent plate reader (Biotek; λex 560 nm, λem 600 nm).

epithelial HepG2 cells = assay: Cytotoxicity assay (alamarBlue cell viability), HepG2; assay type: cell-based; conditions: 1 hour with compound 2–100 µM, then 24 hours
Protocol: as §1

S. aureus = conditions: had shown promising antibacterial activities; strain and reference not given; cited from earlier work
[2] = system: methicillin-resistant Staphylococcus aureus USA 300; assay: microbe, parasite or virus in culture; conditions: MRSA / USA300, read-out: MIC S. aureus (USA300)

| Compound | MIC S. aureus (USA300) ([1]; USA 300) [µM] | ED50 HaCaT (HaCaT keratinocytes) [µM] | ED50 HepG2 (epithelial HepG2 cells) [µM] | MIC against S. aureus (reason for choosing the sequences) (S. aureus) | MIC S. aureus (USA300) ([1]; MRSA USA300, CAMHB, overnight incubation 35 °C, visual inspection, duplicate) [µM] | MIC [2] [µM] |
| --- | --- | --- | --- | --- | --- | --- |
| C[C@@H](c1ccccc1)N(CC(N)=O)C(=O)CN(C(=O)CN(CCN)C(=O)CN(C(=O)CN(C(=O)CN(CCN)C(=O)CN(C(=O)CN(C(=O)CN(CCN)C(=O)CN(C(=O)CN(C(=O)CNCCN)[C@@H](C)c1ccccc1)[C@@H](C)c1ccccc1)[C@@H](C)c1ccccc1)[C@@H](C)c1ccccc1)[C@@H](C)c1ccccc1)[C@@H](C)c1ccccc1)[C@@H](C)c1ccccc1 [1a, (NaeNspeNspe)4] (H-[Gly(N-2-aminoethyl)][Nspe][Nspe][Gly(N-2-aminoethyl)][Nspe][Nspe][Gly(N-2-aminoethyl)][Nspe][Nspe][Gly(N-2-aminoethyl)][Nspe][Nspe]-NH2; N-terminus and C-terminus assumed) | 2 (≈ 3.41 µg/mL) | 26 | 15 | below 2 µM | – | – |
| C[C@@H](c1ccccc1)N(CC(N)=O)C(=O)CN(C(=O)CN(CCCCN)C(=O)CN(Cc1ccc(F)cc1)C(=O)CN(Cc1ccc(F)cc1)C(=O)CN(CCCCN)C(=O)CN(C(=O)CN(C(=O)CN(CCCCN)C(=O)CN(Cc1ccc(F)cc1)C(=O)CN(Cc1ccc(F)cc1)C(=O)CNCCCCN)[C@@H](C)c1ccccc1)[C@@H](C)c1ccccc1)[C@@H](C)c1ccccc1 [1b, [(NLysNpfbNpfb)(NLysNspeNspe)]2] (H-[Nlys][N(4-F-Bzl)Gly][N(4-F-Bzl)Gly][Nlys][Nspe][Nspe][Nlys][N(4-F-Bzl)Gly][N(4-F-Bzl)Gly][Nlys][Nspe][Nspe]-NH2; N-terminus and C-terminus assumed) | 2 to 4 | 53 | 18 | below 2 µM | – | – |
| C=C1NC(=O)[C@H]([C@@H](C)CC)NC(=O)[C@H](NC(=O)/C(=C/C)NC(=O)[C@@H](N)[C@@H](C)CC)CSC[C@@H](C(=O)N[C@H]2C(=O)N3CCC[C@H]3C(=O)NCC(=O)N[C@H](C(=O)N[C@@H](CCCCN)C(=O)O)CS[C@H]2C)NC(=O)[C@H](CC(C)C)NC1=O [compound 4, Nisin[1,2,3,4,5,6,7,8,9, 10, 11, 12], reference compound] | – | – | – | – | > 100 | – |
| CN[C@H](CC(C)C)C(=O)N[C@H]1C(=O)N[C@@H](CC(N)=O)C(=O)N[C@H]2C(=O)N[C@H]3C(=O)N[C@H](C(=O)N[C@H](C(=O)O)c4cc(O)cc(O)c4-c4cc3ccc4O)[C@H](O)c3ccc(c(Cl)c3)Oc3cc2cc(c3O[C@@H]2O[C@H](CO)[C@@H](O)[C@H](O)[C@H]2O[C@H]2C[C@](C)(N)[C@H](O)[C@H](C)O2)Oc2ccc(cc2Cl)[C@H]1O [compound 7, Vancomycin] | – | – | – | – | – | 1 (≈ 1.45 µg/mL) |
